Laboratory results published in patent US9873694B2, “Imidazole quinoline-based immune system modulators” (Janus Biotherapeutics, Inc., priority 2011, dated 2018).

Tests used:
human TLR9 (hTLR9) = target: T1, human TLR9 (hTLR9) (Homo sapiens, UniProt Q9NR96); assay: TLR9 antagonist assay (HEK-Blue-hTLR9 cells, NF-kB/AP-1 driven SEAP reporter, ODN 2006 agonist); type: cell-based; settings: 1 hour compound pre-incubation, then hTLR9 agonist (such as ODN 2006, 1 uM) overnight, SEAP read at 620 nm, 4 parameter Hill fit, read-out: hTLR9 antagonism IC50
T1 construct: host or cells: HEK293 (HEK-Blue-hTLR9)
T1 sequence (Q9NR96 26-1032): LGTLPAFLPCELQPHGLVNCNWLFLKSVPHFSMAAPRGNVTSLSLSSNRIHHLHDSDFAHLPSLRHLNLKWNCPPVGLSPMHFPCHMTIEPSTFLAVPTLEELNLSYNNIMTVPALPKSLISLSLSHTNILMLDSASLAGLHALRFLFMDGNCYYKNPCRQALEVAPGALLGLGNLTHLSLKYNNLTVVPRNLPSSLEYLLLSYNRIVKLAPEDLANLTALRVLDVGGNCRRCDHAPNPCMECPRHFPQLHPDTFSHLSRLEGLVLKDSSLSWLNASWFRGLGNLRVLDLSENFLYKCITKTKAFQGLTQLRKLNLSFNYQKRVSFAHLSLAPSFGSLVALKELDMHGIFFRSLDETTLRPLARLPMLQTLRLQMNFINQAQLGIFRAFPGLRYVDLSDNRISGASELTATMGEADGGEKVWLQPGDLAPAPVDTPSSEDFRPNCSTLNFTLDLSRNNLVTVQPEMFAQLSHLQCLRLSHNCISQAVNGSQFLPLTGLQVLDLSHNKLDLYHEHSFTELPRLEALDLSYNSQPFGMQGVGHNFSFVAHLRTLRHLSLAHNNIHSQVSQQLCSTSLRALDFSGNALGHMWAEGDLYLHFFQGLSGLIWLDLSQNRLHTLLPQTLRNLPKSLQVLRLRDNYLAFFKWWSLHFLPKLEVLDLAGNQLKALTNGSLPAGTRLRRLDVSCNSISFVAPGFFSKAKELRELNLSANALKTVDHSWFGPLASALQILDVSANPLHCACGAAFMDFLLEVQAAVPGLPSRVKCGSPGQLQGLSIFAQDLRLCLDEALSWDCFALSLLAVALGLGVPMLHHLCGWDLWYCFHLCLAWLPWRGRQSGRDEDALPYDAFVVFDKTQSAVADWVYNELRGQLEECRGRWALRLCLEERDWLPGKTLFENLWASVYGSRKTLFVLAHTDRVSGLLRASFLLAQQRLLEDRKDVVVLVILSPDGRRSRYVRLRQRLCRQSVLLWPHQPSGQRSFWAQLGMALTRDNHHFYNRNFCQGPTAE
Excerpt: HEK-Blue™-hTLR9 cells were obtained from InvivoGen Inc. and used to determine test compound antagonism of human TLR9 (hTLR9) driven responses. HEK-Blue™-hTLR9 cells are designed for studying the stimulation of human TLR9 by monitoring the activation of NF-kB. As described by the manufacturer, “HEK-Blue™-hTLR9 cells were obtained by co-transfection of the hTLR9 gene and an optimized secreted embryonic alkaline phosphatase (SEAP) reporter gene into HEK293 cells. The SEAP reporter gene is placed under the control of the IFN-b minimal promoter fused to five NF-kB and AP-1 binding sites. Stimulation with a TLR9 ligand activates NF-kB and AP-1 which induces the production of SEAP. Levels of SEAP can be easily determined with QUANTI-Blue™ a detection medium that turns purple/blue in the presence of alkaline phosphatase”.
A cell suspension of HEK-Blue™-hTLR9 cells at ˜450,000 cells per ml in test medium which contained 5% (v/v) heat inactivated FBS was prepared. 180 ul of cell suspension (˜80,000 cells) was added per well of a flat-bottom 96-well plate and place in an incubator at 37° C. for overnight.
Test compounds were serially diluted in test medium, generally starting at 10 uM, and diluting by 3 fold in a 96 well master plate. 20 ul of diluted test compound was transferred using a 12 channel multi-channel pipet to the cell plate and incubated at 37° C. for 1 hour. Then 20 ul of an hTLR9 agonist (such as ODN 2006, 1 uM) was added to each well and the plate incubated at 37° C. overnight.
Invivogen's QUANTI-Blue™ was prepared following the manufacturer's instructions. […] of resuspended QUANTI-Blue™ was added per well of a flat bottom 96-well plate. 20 ul per well of induced HEK-Blue™-hTLR9 cells supernatant was then added to the plate and the plate was incubated at 37° C. for 1-3 h. SEAP levels were determined using a spectrophotometer at 620 nm.
The concentration dependent inhibition of hTLR9 dependent SEAP production was expressed as the concentration of compound which produced half the maximal level of SEAP induced by the hTLR agonist alone. Percent activity was calculated for each observation using the formula: % activity=((observed O.D.−background O.D.)/(agonist only O.D.−background O.D.))*100. The 50% inhibitory concentration (IC50) (Table 3) was calculated by using a 4 parameter Hill plot sigmoidal curve fit where the inflection point of the sigmoidal curve is defined as the point of 50% activity.

TLR9 = target: T2, TLR9 (Mus musculus, UniProt Q9EQU3); assay: In vivo TLR antagonism: serum IL-12 after CpG ODN 1668 TLR9 agonist injection, single intraperitoneal dose to male C57Bl/6 mice; design: species or system C57Bl/6J mouse; settings: male C57Bl/6J mice; test article i.p. at T=0 hr; CpG ODN 1668 i.p. at T=1 hr; serum IL-12 ELISA at T=4 hr; doses 400 ug to 10 ug
T2 construct: Male C57Bl/6J mice, at ˜8 weeks of age from Jackson Laboratories were used; tissue Jackson Laboratories; host or cells: whole animal, male C57Bl/6J mouse
T2 sequence (Q9EQU3 26-1032): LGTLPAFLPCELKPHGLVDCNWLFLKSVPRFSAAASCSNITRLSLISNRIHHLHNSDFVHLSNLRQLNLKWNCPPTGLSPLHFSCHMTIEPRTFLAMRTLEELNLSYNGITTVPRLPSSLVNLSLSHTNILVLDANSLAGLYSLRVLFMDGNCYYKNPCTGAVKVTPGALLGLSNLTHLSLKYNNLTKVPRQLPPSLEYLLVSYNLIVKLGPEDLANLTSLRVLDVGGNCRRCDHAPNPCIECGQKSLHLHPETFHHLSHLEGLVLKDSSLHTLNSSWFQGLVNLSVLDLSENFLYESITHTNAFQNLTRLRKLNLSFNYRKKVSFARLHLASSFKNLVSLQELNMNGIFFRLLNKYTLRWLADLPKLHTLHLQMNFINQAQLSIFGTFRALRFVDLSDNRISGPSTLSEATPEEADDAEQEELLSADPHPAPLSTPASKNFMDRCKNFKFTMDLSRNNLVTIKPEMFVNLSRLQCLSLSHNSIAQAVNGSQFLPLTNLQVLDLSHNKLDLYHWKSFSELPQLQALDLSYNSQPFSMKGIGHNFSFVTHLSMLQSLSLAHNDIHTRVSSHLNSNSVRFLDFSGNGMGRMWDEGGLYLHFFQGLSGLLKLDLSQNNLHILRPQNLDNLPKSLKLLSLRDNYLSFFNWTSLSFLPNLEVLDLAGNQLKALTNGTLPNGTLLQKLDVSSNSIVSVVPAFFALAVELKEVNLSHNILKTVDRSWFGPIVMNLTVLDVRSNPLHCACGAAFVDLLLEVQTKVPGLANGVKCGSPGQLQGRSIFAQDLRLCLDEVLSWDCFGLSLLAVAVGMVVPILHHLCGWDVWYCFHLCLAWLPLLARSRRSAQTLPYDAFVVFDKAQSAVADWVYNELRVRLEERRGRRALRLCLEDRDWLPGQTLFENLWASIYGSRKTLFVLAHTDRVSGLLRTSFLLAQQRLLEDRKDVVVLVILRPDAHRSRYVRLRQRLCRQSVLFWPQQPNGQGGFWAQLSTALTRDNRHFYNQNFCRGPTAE
Protocol: The Effects of test articles on Toll-Like Receptor (TLR) Knockdown Following a Single Intraperitoneal Dose to Male C57Bl/6 Mice.
Toll-Like Receptor (TLR) knockdown effect of test articles was evaluated in a C57Bl/6J mouse. Primary end points included a terminal blood collection for analysis of cytokine production in response to CpG-DNA TLR9 agonist injection. Male C57Bl/6J mice, at ˜8 weeks of age from Jackson Laboratories were used. Test groups were 3 mice per treatment group and the groups were administered test article in a series of descending doses within the range of 400 ug to 10 ug. Test article treatment was dosed at T=0 hr by intraperitoneal injection. Agonist (CpG ODN 1668) treatment was dosed one hour later, T=1 hr by intraperitoneal injection. Necropsy was performed 3 hours post agonist treatment, T=4 hr. Blood samples were collected into serum separator tubes, allowed to clot at room temperature for at least 20 minutes, centrifuged at ambient temperature at 3000 g for 10 minutes, and the serum was extracted. ELISA was performed to determine murine IL-12 levels following manufacture's protocol (BioLegend Inc.). Serum IL-12 levels were calculated and plotted versus administered dose of antagonist and inhibitory dose at 50% (ID50) was determined.

| Compound | IC50 (human TLR9 (hTLR9)) [nM] | In vivo TLR antagonism ID50 (inhibitory dose at 50% of serum IL-12) (TLR9) [µg] |
| --- | --- | --- |
| CCOCc1nc2c(N(C)CCN(C)C)nc3ccccc3c2n1CCN1CCOCC1 [Compound 60] | 3410 |  |
| CCOCc1nc2c(N(C)CCN(C)C)nc3ccccc3c2n1CCN(C)C [Compound 61] | 389 |  |
| CCOCc1nc2c(N3CCN(C)CC3)nc3ccccc3c2n1CCN(C)C [Compound 62] | 713 |  |
| CCOCc1nc2c(N(C)CCN(C)C)nc3ccccc3c2n1CCOCCO [Compound 63] | 3350 |  |
| CCOCc1nc2c(N3CCN(C)CC3)nc3ccccc3c2n1CCOCCO [Compound 64] | 6690 |  |
| CCOCc1nc2c(N(C)CCN(C)C)nc3ccccc3c2n1CCN1CCN(C)CC1 [Compound 65] | 56 | 67 |
| CCOCc1nc2c(N3CCN(C)CC3)nc3ccccc3c2n1CCN1CCN(C)CC1 [Compound 66] | 323 |  |
| CN(C)CCN(C)c1nc2ccccc2c2c1ncn2CCN(C)C [Compound 67] | 143 | 1262 |
| CN(C)CCN(C)c1nc2ccccc2c2c1nc(O)n2CCN(C)C [Compound 68] | 136 | 280 |
| CN(C)CCN(C)c1nc2ccccc2c2c1nc(O)n2CCc1c[nH]cn1 [Compound 69] | 1650 |  |
